In patent US20180360799A1, “Nitrofuran Derivatives That Induce Apoptosis in Breast Cancer Cells by Activating Protein Expression” (Oklahoma Medical Research Foundation, priority 2015, published 2018):

Assays:
HCC-1806 cells = assay: Viability of siRNA-transfected HCC-1806 cells, CellTiter-Glo; format: cell-based, human; conditions: 48 h
Experimental: FIG. 3H is a graph showing cell viability of HCC-1806 cells transfected with a control or CHOP siRNA after treatment with a 5-nitrofuran-2-amide derivative or DMSO. Control or CHOP siRNA (20 nM) was transfected into HCC-1806 cells, and 6 h later, cells were treated with compound 3d (5 μM) or DMSO for 48 h. Cell viability was measured using the CellTiter-Glo assay. The data shown are representative of 3 independent studies. *P<0.05 by Student's t-test compared with DMSO-treated cells.
To confirm that CHOP induction plays a role in compound 3d-mediated TNBC cell death, the inventor asked whether siRNA-mediated knockdown of CHOP mitigated compound 3d-induced cell death. For this, HCC-1806 cells were transfected with different concentrations of CHOP siRNA, and knockdown efficiency was assessed by RT-PCR.
HCC-1806 cells incubated with serum-free RPMI 1640 medium (Corning) were transfected with scrambled control or CHOP siRNA (E-004819-00; Dharmacon/Thermo Scientific, IL, US) using LipofectAMINE reagent (Invitrogen). After 6 h, the medium was replaced with RPMI 1640 medium supplemented with 10% FBS and compound 3d was added. After 48 h, the medium was aspirated and 60 μL/well of CellTiter-Glo reagent was added in 96-w format. Cell viability was measured with an EnVision multilabel plate reader.

HCC-1143 cells = assay: Cell viability, CellTiter-Glo, HCC-1143; format: cell-based; conditions: Homo sapiens, HCC1143, 72 h; Table 2; cancer cell viability, 3 d treatment; read-out: HCC-1143 IC50
Experimental: Given the known functions of CHOP in ER stress-induced apoptosis^16, 17 and in regulating cancer cell death,^6, 19, 20 the inventor investigated whether compound 1 affects the viability of TNBC cells. Three human TNBC cell lines, HCC-1806, HCC-1143, and HCC-38, were treated with doses of 1 ranging from 0.125 μM to 20 μM and their viability was assessed using the CellTiter-Glo assay, which measures intracellular ATP levels.
HCC-1806, HCC-1143, or HCC-38 cells were seeded at 3×10^3 cells/well in a 384-well plate and treated with compounds at the indicated concentrations. After 3 d treatment, the medium was aspirated and 20 μL/well of CellTiter-Glo reagent was added. Cell viability was measured with an EnVision multilabel plate reader. The IC50 value for cell viability of each compound was calculated with GraphPad Prism (La Jolla, Calif., US).

[1] = tested on: ER stress response elements (ERSE)-Luc reporter; assay: ERSE-Luc reporter assay in HEK293 cells; format: cell-based, human; conditions: 10 μM, 24 h
Experimental: FIG. 3G is a graph showing HEK293 cells stably expressing CHOP-Luc, ERSE-Luc, or UPRE-luc reporters were treated with DMSO, a 5-nitrofuran-2-amide derivative, or tunicamycin. HEK293 cells stably expressing CHOP-Luc, ERSE-Luc, or UPRE-luc reporters were treated with DMSO, compound 3d (10 μM), or Tm (1 μg/mL) for 24 h, and luciferase activity was measured using the Bright-Glo assay. Results are the means of 4 replicate wells and are representative of 3 independent experiments.
The inventor next asked whether the IRE1α and ATF6 branches of the unfolded protein response were also activated by compound 3d treatment of TNBC cells. […] XBP1 mRNA splicing, as measured by XBP1s levels, increased only slightly in the first 24 h after compound 3d treatment of HCC-1806 cells (from 11% of total XBP1 at 0 h to 15˜20% at 2˜24 h). […] Next, it was determined whether compound 3d activates the ATF6 pathway by evaluating its effect on the activity of an ER stress response elements (ERSE)-Luc reporter stably established in HEK293 cell line.
The HEK293T CHOP reporter cell line (CHOP-Luc) was previously described.^21 HEK293T cells were stably transfected with ERSE-Luciferase^25 and UPRE-Luciferase^23 reporters to generate ERSE-Luc and UPRE-Luc reporter cell lines, respectively. […] Luciferase activity was measured with a Bright-Glo kit 24 h later.

IC50 (HCC-1143 cells): 2100 nM
Compound: CC1CCN(c2ccc(NC(=O)c3ccc([N+](=O)[O-])o3)cc2)CC1 [Compound 3d]
viability of cells transfected with control siRNA (HCC-1806 cells; HCC-1806, 3d 5 μM): marked reduction in the viability
cell death in cells transfected with CHOP siRNA (HCC-1806 cells; HCC-1806, CHOP siRNA 20 nM, 3d 5 μM): significantly attenuated the effects of compound 3d
effect on ERSE-driven luciferase activity, in words [1]: no significant effect
